# Source: BindingDB's records for patent WO2022098806 (MERCK SHARP & DOHME LLC, 2022)
# Values joined by “and” are separate entries in the source; they are usually repeats but may differ in a detail not shown here. Equal values may be shown once.
# Biological target: Mitogen-activated protein kinase kinase kinase kinase 1 (Homo sapiens, UniProt Q92918)
# Assay: HPK1-SLP76 TR-FRET ASSAY
# Chain of Mitogen-activated protein kinase kinase kinase kinase 1 (Q92918 whole entry): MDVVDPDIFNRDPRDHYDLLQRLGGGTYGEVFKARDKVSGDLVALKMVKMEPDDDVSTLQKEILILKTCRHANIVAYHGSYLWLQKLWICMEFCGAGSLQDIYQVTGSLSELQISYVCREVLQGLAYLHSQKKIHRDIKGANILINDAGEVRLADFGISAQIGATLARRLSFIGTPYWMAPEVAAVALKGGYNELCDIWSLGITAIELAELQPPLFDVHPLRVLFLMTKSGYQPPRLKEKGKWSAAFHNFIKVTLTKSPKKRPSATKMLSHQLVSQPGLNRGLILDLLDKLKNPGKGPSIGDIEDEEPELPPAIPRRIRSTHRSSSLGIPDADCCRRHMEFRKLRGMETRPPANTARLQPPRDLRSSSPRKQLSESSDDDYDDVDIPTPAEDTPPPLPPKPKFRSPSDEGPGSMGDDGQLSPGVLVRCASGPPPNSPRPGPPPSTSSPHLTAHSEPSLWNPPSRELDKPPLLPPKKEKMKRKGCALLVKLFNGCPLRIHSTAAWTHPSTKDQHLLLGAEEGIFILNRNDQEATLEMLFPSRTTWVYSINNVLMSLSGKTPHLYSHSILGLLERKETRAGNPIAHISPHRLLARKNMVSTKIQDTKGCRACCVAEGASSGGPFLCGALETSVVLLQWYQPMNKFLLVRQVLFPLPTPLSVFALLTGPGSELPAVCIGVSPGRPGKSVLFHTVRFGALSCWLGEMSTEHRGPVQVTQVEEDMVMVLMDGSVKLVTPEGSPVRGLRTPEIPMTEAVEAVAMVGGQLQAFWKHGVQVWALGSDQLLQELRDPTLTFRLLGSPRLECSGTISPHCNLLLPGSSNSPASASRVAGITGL
row,Structure (SMILES),IC50
1,"COc1cc2c(cc1Nc1ncc3c(N)c(F)c(-c4ccccc4-c4ccnn4C)cc3n1)CN(C)CC2 [WO2022098806, Compound 2-65]",17000 pM
2,"COc1nc(C2(C#N)CC2)ccc1Nc1ncc2c(N)c(F)c(-c3cnc4c(c3C)NCCO4)cc2n1 [WO2022098806, Compound 2-68]",14000 pM
3,"COc1ccccc1Nc1ncc2c(N)c(F)c(-c3cnc4c(c3C)NCCO4)cc2n1 [WO2022098806, Compound 2-71]",250 pM
4,"COc1cc2c(cc1Nc1ncc3c(N)c(F)c(-c4cnc5c(c4C)NCCO5)cc3n1)CN(C(C)C)CC2 [WO2022098806, Compound 2-72]",120 pM
5,"CNC(=O)c1ccc(Nc2ncc3c(N)c(F)c(-c4cnc5c(c4C)NCCO5)cc3n2)c(OC)c1 [WO2022098806, Compound 2-74]",270 pM
6,"COc1cc2c(cc1Nc1ncc3c(N)c(F)c(-c4cnc5c(c4C)NCCO5)cc3n1)CN(C)CC2(C)C [WO2022098806, Compound 2-75]",330 pM
7,"CNC(=O)c1ccc(Nc2ncc3c(N)c(F)c(-c4cnc5c(c4C)NCCO5)c(Cl)c3n2)c(OC)c1 [WO2022098806, Compound 2-98]",6730 pM
8,"Cc1c(-c2c(F)c(N)c3cnc(Nc4ccc5c(c4)CN(C(C)C)CC5)nc3c2Cl)cnc2c1NCCO2 [WO2022098806, Compound 2-102]",80 pM and 200 pM and 40 pM
9,"Cc1c(-c2cc3nc(Nc4ccc(CS(C)(=O)=O)cc4)ncc3c(N)c2F)cnc2c1NCCO2 [WO2022098806, Compound 2-114]",50 pM and 70 pM and 40 pM
10,"Cc1c(-c2cc3nc(Nc4ccc5c(c4)C4CCC5N4C)ncc3c(N)c2F)cnc2c1NCCO2 (centres undefined) [WO2022098806, Compound 2-121]",20 pM
11,"CN1CCc2ccc(Nc3ncc4c(N)c(F)c(-c5cnc6c(c5Cl)NCCO6)cc4n3)cc2C1 [WO2022098806, Compound 2-124]",50 pM and 30 pM
12,"CCS(=O)(=O)Cc1ccc(Nc2ncc3c(N)c(F)c(-c4cnc5c(c4C)NCCO5)cc3n2)c(F)c1 [WO2022098806, Compound 2-125]",100 pM and 450 pM and 90 pM
13,"Cc1c(-c2cc3nc(Nc4ccc5c(c4)CC(C)(C)N(C)C5)ncc3c(N)c2F)cnc2c1NCCO2 [WO2022098806, Compound 2-126]",90 pM
14,"Cc1c(-c2cc3nc(Nc4cccc5c4CC(C)(C)N(C)C5)ncc3c(N)c2F)cnc2c1NCCO2 [WO2022098806, Compound 2-127]",100000 pM
15,"Cc1c(-c2cc3nc(Nc4ccc5c(c4)CN(C)CC5)ncc3c(N)c2F)cnc2cc[nH]c12 [WO2022098806, Compound 2-130]",100 pM
16,"Cc1c(-c2c(F)c(N)c3cnc(Nc4ccc(CS(=O)(=O)C(C)C)cc4)nc3c2Cl)cnc2c1NCCO2 [WO2022098806, Compound 2-133]",400 pM
17,"Cc1c(-c2c(F)c(N)c3cnc(Nc4ccc(CS(C)(=O)=O)cc4F)nc3c2Cl)cnc2c1NCCO2 [WO2022098806, Compound 2-135]",130 pM
18,"Cc1c(-c2cc3nc(Nc4ccc(CS(=O)(=O)C5CC5)cc4)ncc3c(N)c2F)cnc2c1NCCO2 [WO2022098806, Compound 2-136]",100 pM

# Second part, the molecule after the results:
row,IC50,Structure (SMILES)
1,60 pM,"Cc1c(-c2cc3nc(Nc4ccc([C@H](C)S(C)(=O)=O)cc4)ncc3c(N)c2F)cnc2c1NCCO2 [WO2022098806, Compound 2-62]"
2,90 pM,"Cc1c(-c2cc3nc(Nc4ccc([C@@H](C)S(C)(=O)=O)cc4)ncc3c(N)c2F)cnc2c1NCCO2 [WO2022098806, Compound 2-63]"
3,50 pM,"Cc1c(-c2cc3nc(Nc4ccc(N5CCOC5=O)cc4)ncc3c(N)c2F)cnc2c1NCCO2 [WO2022098806, Compound 2-67]"
4,50 pM,"Cc1c(-c2cc3nc(Nc4ccc5c(c4)CN(C)CC5)ncc3c(N)c2F)cnc2c1NCCO2 [WO2022098806, Compound 2-70]"
5,30 pM,"Cc1c(-c2cc3nc(Nc4ccc5c(c4)CN(C(C)C)CC5)ncc3c(N)c2F)cnc2c1NCCO2 [WO2022098806, Compound 2-76]"
6,30 pM,"Cc1c(-c2cc3nc(Nc4ccc5c(c4)C4CC5CN4C)ncc3c(N)c2F)cnc2c1NCCO2 (centres undefined) [WO2022098806, Compound 2-79]"
7,70 pM,"CNC(=O)C1(c2ccc(Nc3ncc4c(N)c(F)c(-c5cnc6c(c5C)NCCO6)cc4n3)cc2)CCCCC1 [WO2022098806, Compound 2-80]"
8,40 pM,"CNC(=O)C1(c2ccc(Nc3ncc4c(N)c(F)c(-c5cnc6c(c5C)NCCO6)cc4n3)cc2)CC1 [WO2022098806, Compound 2-81]"
9,30 pM,"CNC(=O)C1(c2ccc(Nc3ncc4c(N)c(F)c(-c5cnc6c(c5C)NCCO6)cc4n3)cc2)CCC1 [WO2022098806, Compound 2-82]"
10,40 pM,"CNC(=O)C1(c2ccc(Nc3ncc4c(N)c(F)c(-c5cnc6c(c5C)NCCO6)cc4n3)cc2)CCCC1 [WO2022098806, Compound 2-83]"
11,20 pM,"Cc1c(-c2cc3nc(Nc4ccc(CS(C)(=O)=O)nc4)ncc3c(N)c2F)cnc2c1NCCO2 [WO2022098806, Compound 2-84]"
12,30 pM,"Cc1c(-c2cc3nc(Nc4ccc5c(c4)CN(C)[C@@H](C)C5)ncc3c(N)c2F)cnc2c1NCCO2 [WO2022098806, Compound 2-85]"
13,40 pM,"Cc1c(-c2cc3nc(Nc4ccc5c(c4)CN(C)[C@H](C)C5)ncc3c(N)c2F)cnc2c1NCCO2 [WO2022098806, Compound 2-86]"
14,10 pM,"CCS(=O)(=O)Cc1ccc(Nc2ncc3c(N)c(F)c(-c4cnc5c(c4C)NCCO5)cc3n2)c(OC)c1 [WO2022098806, Compound 2-89]"
15,90 pM,"Cc1c(-c2c(F)c(N)c3cnc(Nc4ccc(S(C)(=O)=O)cc4)nc3c2Cl)cnc2c1NCCO2 [WO2022098806, Compound 2-103]"
16,70 pM,"COc1cc2c(cc1Nc1ncc3c(N)c(F)c(-c4cnc5c(c4C)NCCO5)c(Cl)c3n1)CN(C(C)C)CC2 [WO2022098806, Compound 2-106]"
17,10 pM,"Cc1c(-c2c(F)c(N)c3cnc(Nc4ccc5c(c4)CN(C)CC54CC4)nc3c2Cl)cnc2c1NCCO2 [WO2022098806, Compound 2-108]"
18,50 pM,"Cc1c(-c2c(F)c(N)c3cnc(Nc4ccc5c(c4)CN(C)CC54CC4)nc3c2C#N)cnc2c1NCCO2 [WO2022098806, Compound 2-109]"
19,40 pM,"Cc1c(-c2cc3nc(Nc4ccc5c(c4)CN(C)CCC5)ncc3c(N)c2F)cnc2c1NCCO2 [WO2022098806, Compound 2-117]"
20,40 pM,"Cc1c(-c2cc3nc(Nc4ccc5c(c4)CCN(C)CC5)ncc3c(N)c2F)cnc2c1NCCO2 [WO2022098806, Compound 2-119]"
21,10 pM,"Cc1c(-c2cc3nc(Nc4ccc5c(c4)CNCCC5)ncc3c(N)c2F)cnc2c1NCCO2 [WO2022098806, Compound 2-120]"
22,30 pM,"Cc1c(-c2cc3nc(Nc4ccc5c(c4)CN(C)C(C)(C)C5)ncc3c(N)c2F)cnc2c1NCCO2 [WO2022098806, Compound 2-128]"
23,70 pM,"Cc1c(-c2cc3nc(Nc4ccc5c(c4)CCS(=O)(=O)C5)ncc3c(N)c2F)cnc2c1NCCO2 [WO2022098806, Compound 2-138]"
24,40 pM,"CN1CCc2ccc(Nc3ncc4c(N)c(F)c(-c5cncc6[nH]ccc56)cc4n3)cc2C1 [WO2022098806, Compound 2-139]"
25,50 pM,"Cc1c(-c2cc3nc(Nc4ccc5c(c4)CN(C)CC5)ncc3c(N)c2F)cnc2c1NCC(C)O2 (centres undefined) [WO2022098806, Compound 2-141]"
26,50 pM,"Cc1c(-c2cc3nc(Nc4ccc5c(c4)CN(C(C)C)CC5)ncc3c(N)c2F)cnc2c1NCC(C)O2 (centres undefined) [WO2022098806, Compound 2-145]"
